Data taken from patent US10087188B2, “Benzamide imidazopyrazine Btk inhibitors” (MERCK SHARP & DOHME CORP., priority 2014, dated 2018).

How the values were obtained:
[1] = target: BTK enzyme (recombinant full-length BTK, hBTK) (Homo sapiens (Human), UniProt Q06187); test: Btk enzyme activity assay, LANCE TR-FRET; format: biochemical; settings: 50 pM hBTK, 2 μM biotin-A5-peptide, 25 μM ATP; 60 minute compound & enzyme incubation; read-out: BTK binding IC50
Protocol: Btk Enzyme Activity Assay Methods
BTK enzymatic activity was determined with the LANCE (Lanthanide Chelate Excite) TR-FRET (Time-resolved fluorescence resonance energy transfer) assay. […] After 60 minutes incubation with detection reagents, reaction plates were read on a PerkinElmer EnVision plate reader using standard TR-FRET protocol.

HeLa cells = test: [3H] Adenosine uptake assay; format: cell-based; settings: Homo sapiens, HeLa, accumulation of tritiated adenosine into HeLa cells; compound concentration range 10 μM to 0.032 nM; read-out: ADU inhibition IC50 (adenosine uptake inhibition potency)
Method in brief: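 Accumulation of tritiated adenosine in adherent HeLa cells, detected by scintillant-plate coincidence counting, gives IC50 via 4-parameter robust fit. Compound (constant 0.25% DMSO) applied 30 min ahead, then 60 min radiolabel exposure (added from 500 nM solution), ambient conditions, HBSS with 5% FBS.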

Sequence of BTK enzyme (recombinant full-length BTK, hBTK) (Q06187 whole entry): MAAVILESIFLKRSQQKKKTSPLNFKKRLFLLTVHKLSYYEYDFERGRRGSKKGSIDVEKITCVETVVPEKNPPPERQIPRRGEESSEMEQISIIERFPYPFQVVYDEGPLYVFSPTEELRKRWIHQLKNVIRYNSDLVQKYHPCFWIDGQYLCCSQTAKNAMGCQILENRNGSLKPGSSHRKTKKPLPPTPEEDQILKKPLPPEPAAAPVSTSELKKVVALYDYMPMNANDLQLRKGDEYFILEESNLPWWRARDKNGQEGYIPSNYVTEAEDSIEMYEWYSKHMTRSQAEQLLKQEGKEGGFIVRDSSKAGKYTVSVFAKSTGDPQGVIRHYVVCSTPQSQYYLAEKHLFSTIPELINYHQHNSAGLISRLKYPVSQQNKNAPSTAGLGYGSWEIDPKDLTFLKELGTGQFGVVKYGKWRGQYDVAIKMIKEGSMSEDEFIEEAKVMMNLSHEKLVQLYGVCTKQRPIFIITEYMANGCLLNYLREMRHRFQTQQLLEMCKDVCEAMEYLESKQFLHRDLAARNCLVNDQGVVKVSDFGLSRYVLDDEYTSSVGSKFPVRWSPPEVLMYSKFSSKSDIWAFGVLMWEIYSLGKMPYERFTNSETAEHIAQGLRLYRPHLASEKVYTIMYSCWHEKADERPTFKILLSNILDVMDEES

With `COc1cc(C(=O)Nc2cc(C(F)(F)F)ccn2)ccc1-c1nc([C@H]2CN(C3CC(C(=O)O)C3)[C@@H](C)CO2)n2ccnc(N)c12` (stereo partly drawn) [Example 185, 3-{(2R,5S)-2-[8-amino-1-(2-methoxy-4-{[4-(trifluoromethyl)pyridin-2-yl]carbamoyl}phenyl)imidazo [1,5-a]pyrazin-3-yl]-5-methylmorpholin-4-yl}cyclobutanecarboxylic acid] the IC50 [1] was 0.0032 µM and the IC50 (HeLa cells) was 5.86 µM.
For `CC(C)(C(=O)O)N1CCC[C@@H](c2nc(-c3ccc(C(=O)Nc4cc(C(F)(F)F)ccn4)cc3F)c3c(N)nccn23)C1` [Example 186, 2-{(3R)-3-[8-amino-1-(2-fluoro-4-{[4-(trifluoromethyl)pyridin-2-yl]carbamoyl}phenyl)imidazo [1,5-a]pyrazin-3-yl]piperidin-1-yl}-2-methylpropanoic acid], the IC50 [1] was 0.0094 µM and the IC50 (HeLa cells) was 1.24 µM.
In the case of `CCOc1cc(C(=O)Nc2cc(C(F)(F)F)ccn2)ccc1-c1nc([C@H]2CN(C3CCC(C)(C(=O)O)CC3)[C@@H](C)CO2)n2c(Cl)cnc(N)c12` (stereo partly drawn) [Example 189, 4-{(2R,5S)-2-[8-amino-5-chloro-1-(2-ethoxy-4-{[4-(trifluoromethyl)pyridin-2-yl]carbamoyl}phenyl)imidazo [1,5-a]pyrazin-3-yl]-5-methylmorpholin-4-yl}-1-methylcyclohexanecarboxylic acid], the IC50 [1] is reported as 0.0019 µM and the IC50 (HeLa cells) is reported as 4.84 µM.
With `C[C@H]1CO[C@@H](c2nc(-c3ccc(C(=O)Nc4cc(C(F)(F)F)ccn4)cc3)c3c(N)nccn23)CN1[C@H]1CC[C@](C)(C(=O)O)CC1` [Example 191, trans-4-{(2R,5S)-2-[8-amino-1-(4-{[4-(trifluoromethyl)pyridin-2-yl]carbamoyl}phenyl)imidazo [1,5-a]pyrazin-3-yl]-5-methylmorpholin-4-yl}-1-methylcyclohexanecarboxylic acid] the IC50 [1] was 0.00065 µM and the IC50 (HeLa cells) was 1.19 µM.
Compound `C[C@H]1CO[C@@H](c2nc(-c3ccc(C(=O)Nc4cc(C(F)(F)F)ccn4)cc3)c3c(N)nccn23)CN1[C@H]1CC[C@@](C)(C(=O)O)CC1` [Example 192, cis-4-{(2R,5S)-2-[8-amino-1-(4-{[4-(trifluoromethyl)pyridin-2-yl]carbamoyl}phenyl)imidazo [1,5-a]pyrazin-3-yl]-5-methylmorpholin-4-yl}-1-methylcyclohexanecarboxylic acid] has an IC50 [1] of 0.0028 µM and an IC50 (HeLa cells) of 3.08 µM.
Work on `C[C@H]1CO[C@@H](c2nc(-c3ccc(C(=O)Nc4cc(C(F)(F)F)ccn4)cc3F)c3c(N)nccn23)CN1[C@H]1CC[C@](C)(C(=O)O)CC1` [Example 193, trans-4-{(2R,5S)-2-[8-amino-1-(2-fluoro-4-{[4-(trifluoromethyl)pyridin-2-yl]carbamoyl}phenyl)imidazo [1,5-a]pyrazin-3-yl]-5-methylmorpholin-4-yl}-1-methylcyclohexanecarboxylic acid] yielded an IC50 [1] of 0.00056 µM and an IC50 (HeLa cells) of 2.84 µM.
`C[C@H]1CO[C@@H](c2nc(-c3ccc(C(=O)Nc4cc(C(F)(F)F)ccn4)cc3F)c3c(N)nccn23)CN1[C@H]1CC[C@@](C)(C(=O)O)CC1` [Example 194, cis-4-{(2R,5S)-2-[8-amino-1-(2-fluoro-4-{[4-(trifluoromethyl)pyridin-2-yl]carbamoyl}phenyl)imidazo [1,5-a]pyrazin-3-yl]-5-methylmorpholin-4-yl}-1-methylcyclohexanecarboxylic acid] showed an IC50 [1] of 0.0017 µM and an IC50 (HeLa cells) of 4.04 µM.
`C[C@]1(C(=O)O)CC[C@H](N2CCO[C@@H](c3nc(-c4ccc(C(=O)Nc5cc(C(F)F)ccn5)cc4)c4c(N)ncc(Cl)n34)C2)CC1` [Example 195, trans-4-{(2R)-2-[8-amino-5-chloro-1-(4-{[4-(difluoromethyl)pyridin-2-yl]carbamoyl}phenyl)imidazo [1,5-a]pyrazin-3-yl]morpholin-4-yl}-1-methylcyclohexanecarboxylic acid] gave an IC50 [1] of 0.001 µM and an IC50 (HeLa cells) of 2.44 µM.
For `C[C@]1(C(=O)O)CC[C@H](N2CCO[C@@H](c3nc(-c4ccc(C(=O)Nc5cc(C6CC6)ccn5)cc4F)c4c(N)nccn34)C2)CC1` [Example 197, trans-4-[(2R)-2-(8-amino-1-{4-[(4-cyclopropylpyridin-2-yl)carbamoyl]-2-fluorophenyl}imidazo[1,5-a]pyrazin-3-yl)morpholin-4-yl]-1-methylcyclohexanecarboxylic acid], the IC50 [1] was 0.0012 µM and the IC50 (HeLa cells) was 2.95 µM.
Compound `C[C@]1(C(=O)O)CC[C@@H](N2CCO[C@@H](c3nc(-c4ccc(C(=O)Nc5cc(C6CC6)ccn5)cc4F)c4c(N)nccn34)C2)CC1` [Example 198, cis-4-[(2R)-2-(8-amino-1-{4-[(4-cyclopropylpyridin-2-yl)carbamoyl]-2-fluorophenyl}imidazo[1,5-a]pyrazin-3-yl)morpholin-4-yl]-1-methylcyclohexanecarboxylic acid] has an IC50 [1] of 0.0105 µM and an IC50 (HeLa cells) of 2.03 µM.
With `Cc1cnc(N)c2c(-c3ccc(C(=O)Nc4ccccn4)cc3)nc([C@H]3CN([C@H]4CC[C@](C)(C(=O)O)CC4)CCO3)n12` [Example 199, trans-4-[(2R)-2-{8-amino-5-methyl-1-[4-(pyridin-2-ylcarbamoyl)phenyl]imidazo [1,5-a]pyrazin-3-yl}morpholin-4-yl]-1-methylcyclohexanecarboxylic acid] the IC50 [1] was 0.0059 µM and the IC50 (HeLa cells) was 2.02 µM.
In the case of `C[C@H]1CO[C@@H](c2nc(-c3ccc(C(=O)Nc4cc(C(F)(F)F)ccn4)cc3F)c3c(N)ncc(Cl)n23)CN1[C@H]1CC[C@](C)(C(=O)O)CC1` [Example 200, trans-4-{(2R,5S)-2-[8-amino-5-chloro-1-(2-fluoro-4-{[4-(trifluoromethyl)pyridin-2-yl]carbamoyl}phenyl)imidazo [1,5-a]pyrazin-3-yl]-5-methylmorpholin-4-yl}-1-methylcyclohexanecarboxylic acid], the IC50 [1] is reported as 0.00042 µM and the IC50 (HeLa cells) is reported as 1.69 µM.
Compound `C[C@H]1CO[C@@H](c2nc(-c3ccc(C(=O)Nc4cc(C(F)(F)F)ccn4)cc3F)c3c(N)ncc(Cl)n23)CN1[C@H]1CC[C@@](C)(C(=O)O)CC1` [Example 201, cis-4-{(2R,5S)-2-[8-amino-5-chloro-1-(2-fluoro-4-{[4-(trifluoromethyl)pyridin-2-yl]carbamoyl}phenyl)imidazo [1,5-a]pyrazin-3-yl]-5-methylmorpholin-4-yl}-1-methylcyclohexanecarboxylic acid] has an IC50 [1] of 0.0017 µM and an IC50 (HeLa cells) of 4.06 µM.
`CC(C)[C@@]1(C(=O)O)CC[C@@H](N2C[C@H](c3nc(-c4ccc(C(=O)Nc5cc(C(F)(F)F)ccn5)cc4F)c4c(N)ncc(Cl)n34)OC[C@@H]2C)C1` [Example 202, (1R,3R)-3-{(2R,5S)-2-[8-amino-5-chloro-1-(2-fluoro-4-{[4-(trifluoromethyl)pyridin-2-yl]carbamoyl}phenyl)imidazo [1,5-a]pyrazin-3-yl]-5-methylmorpholin-4-yl}-1-(1-methylethyl) cyclopentanecarboxylic acid] showed an IC50 [1] of 0.00076 µM and an IC50 (HeLa cells) of 4.58 µM.
`CC(C)[C@@]1(C(=O)O)CC[C@H](N2C[C@H](c3nc(-c4ccc(C(=O)Nc5cc(C(F)(F)F)ccn5)cc4F)c4c(N)ncc(Cl)n34)OC[C@@H]2C)C1` [Example 203, (1R,3S)-3-{(2R,5S)-2-[8-amino-5-chloro-1-(2-fluoro-4-{[4-(trifluoromethyl)pyridin-2-yl]carbamoyl}phenyl)imidazo [1,5-a]pyrazin-3-yl]-5-methylmorpholin-4-yl}-1-(1-methylethyl) cyclopentanecarboxylic acid] gave an IC50 [1] of 0.0019 µM and an IC50 (HeLa cells) of 0.891 µM.
`C[C@]1(C(=O)O)CC[C@H](N2CCO[C@@H](c3nc(-c4ccc(C(=O)Nc5ccccn5)cc4)c4c(N)ncc(Cl)n34)C2)CC1` [Example 204, trans-4-[(2R)-2-{8-amino-5-chloro-1-[4-(pyridin-2-ylcarbamoyl)phenyl]imidazo [1,5-a]pyrazin-3-yl}morpholin-4-yl]-1-methylcyclohexanecarboxylic acid] gave an IC50 [1] of 0.0038 µM and an IC50 (HeLa cells) of 3.87 µM.
`C[C@H]1CO[C@@H](c2nc(-c3ccc(C(=O)Nc4cc(C(F)F)ccn4)cc3)c3c(N)ncc(Cl)n23)CN1[C@H]1CC[C@](C)(C(=O)O)CC1` [Example 205, trans-4-{(2R,5S)-2-[8-amino-5-chloro-1-(4-{[4-(difluoromethyl)pyridin-2-yl]carbamoyl}phenyl)imidazo [1,5-a]pyrazin-3-yl]-5-methylmorpholin-4-yl}-1-methylcyclohexanecarboxylic acid] showed an IC50 [1] of 0.0013 µM and an IC50 (HeLa cells) of 10 µM.
`C[C@H]1CO[C@@H](c2nc(-c3ccc(C(=O)Nc4cc(C(F)F)ccn4)cc3)c3c(N)nccn23)CN1[C@H]1CC[C@](C)(C(=O)O)CC1` [Example 206, trans-4-{(2R,5S)-2-[8-amino-1-(4-{[4-(difluoromethyl)pyridin-2-yl]carbamoyl}phenyl)imidazo [1,5-a]pyrazin-3-yl]-5-methylmorpholin-4-yl}-1-methylcyclohexanecarboxylic acid] showed an IC50 [1] of 0.001 µM and an IC50 (HeLa cells) of 10 µM.
With `C[C@H]1CO[C@@H](c2nc(-c3ccc(C(=O)Nc4cc(C(F)F)ccn4)cc3F)c3c(N)ncc(Cl)n23)CN1[C@H]1CC[C@](C)(C(=O)O)CC1` [Example 207, trans-4-{(2R,5S)-2-[8-amino-5-chloro-1-(4-{[4-(difluoromethyl)pyridin-2-yl]carbamoyl}-2-fluorophenyl)imidazo[1,5-a]pyrazin-3-yl]-5-methylmorpholin-4-yl}-1-methylcyclohexanecarboxylic acid] the IC50 [1] was 0.737 µM and the IC50 (HeLa cells) was 10 µM.
Compound `C[C@H]1CO[C@@H](c2nc(-c3ccc(C(=O)Nc4cc(C(F)F)ccn4)cc3F)c3c(N)nccn23)CN1[C@H]1CC[C@](C)(C(=O)O)CC1` [Example 208, trans-4-{(2R,5S)-2-[8-amino-1-(4-{[4-(difluoromethyl)pyridin-2-yl]carbamoyl}-2-fluorophenyl)imidazo[1,5-a]pyrazin-3-yl]-5-methylmorpholin-4-yl}-1-methylcyclohexanecarboxylic acid] has an IC50 [1] of 0.923 µM and an IC50 (HeLa cells) of 10 µM.
